Assay results as given in US20230021483A1, “[…] […] METHOD AND CLASSIFICATION OF PHARMACEUTICAL COMPONENTS BY USING TRANSCRIPTOMES” (National Institutes of Biomedical Innovation, Health and …, priority 2016, published 2023).

System: adjuvant-associated biological themes in LV, SP, LN
Details: LV, ID
Procedure, shortened: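 Per-mouse whole-organ transcriptomes; genes with eij/ei(c)>2.0 tested for theme enrichment via TargetMine (GO, KEGG, Reactome, others), Fisher's exact test, Holm-Bonferroni correction. Themes shared by all three mice kept at p<0.05, using the smallest p. Score per adjuvant-associated term = Σ−log(p) of matching themes.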

Structure (SMILES): Nc1nc2c(ncn2[C@@H]2O[C@@H]3COP(=O)(O)O[C@H]4[C@@H](O)[C@H](n5cnc6c(=O)[nH]c(N)nc65)O[C@@H]4COP(=O)(O)O[C@H]3[C@H]2O)c(=O)[nH]1 [cdiGMP, Cyclic diguanylate monophosphate]
- GO annotation: Cytokine-cytokine receptor interaction (Term: cytokine): 13.8
- GO annotation: Cytokine-cytokine receptor interaction|Endocytosis (Term: cytokine): 33.9
- GO annotation: I-kappaB kinase/NF-kappaB signaling (Term: NF-kappa B signaling pathway): 13.8
- GO annotation: NF-kappa B signaling pathway (Term: NF-kappa B signaling pathway): 15.7
- GO annotation: TNF signaling pathway (Term: TNF signaling pathway): 31.3
- GO annotation: activation of immune response (Term: immune response): 17.9
- GO annotation: activation of innate immune response (Term: innate immune response): 21.2
- GO annotation: acute inflammatory response (Term: inflammatory response): 0
- GO annotation: adaptive immune response (Term: adaptive immune response): 10
- GO annotation: adaptive immune response based on somatic recombination of immune receptors built from immunoglobulin superfamily domains (Term: adaptive immune response): 10.6
- GO annotation: apoptotic process (Term: apoptosis): 12.1
- GO annotation: apoptotic signaling pathway (Term: apoptosis): 0
- GO annotation: cell chemotaxis (Term: chemotaxis): 0
- GO annotation: cell death (Term: cell death): 17.7
- GO annotation: cell migration (Term: migration): 0
- GO annotation: cellular response to cytokine stimulus (Term: cytokine): 38.8
- GO annotation: cellular response to interferon-alpha (Term: IFN alpha): 7.42
- GO annotation: cellular response to stress (Term: stress): 0
- GO annotation: chemokine production (Term: chemokine): 8.52
- GO annotation: chemokine-mediated signaling pathway (Term: chemokine): 5.9
- GO annotation: chemotaxis (Term: chemotaxis): 0
- GO annotation: cytokine biosynthetic process (Term: cytokine): 7.93
- GO annotation: cytokine metabolic process (Term: cytokine): 7.39
- GO annotation: cytokine production (Term: cytokine): 31.3
- GO annotation: cytokine secretion (Term: cytokine): 0
- GO annotation: cytokine-mediated signaling pathway (Term: cytokine): 20
- GO annotation: death (Term: cell death): 12.1
- GO annotation: defense response (Term: defense response): 80.9
- GO annotation: defense response to Gram-positive bacterium (Term: defense response): 7.18
- GO annotation: defense response to bacterium (Term: defense response): 10.5
- GO annotation: defense response to other organism (Term: defense response): 44.1
- GO annotation: defense response to protozoan (Term: defense response): 5.31
- GO annotation: defense response to virus (Term: defense response): 24.6
- GO annotation: granulocyte chemotaxis (Term: chemotaxis): 0
- GO annotation: granulocyte migration (Term: migration): 0
- GO annotation: immune response (Term: immune response): 52.3
- GO annotation: immune response-activating signal transduction (Term: immune response): 19.3
- GO annotation: immune response-regulating signaling pathway (Term: immune response): 23.5
- GO annotation: inflammatory response (Term: inflammatory response): 26.1
- GO annotation: innate immune response (Term: innate immune response): 40.7
- GO annotation: innate immune response-activating signal transduction (Term: innate immune response): 20.3
- GO annotation: interferon-alpha production (Term: IFN alpha): 7.69
- GO annotation: intrinsic apoptotic signaling pathway (Term: apoptosis): 0
- GO annotation: leukocyte chemotaxis (Term: chemotaxis): 0
- GO annotation: leukocyte migration (Term: migration): 0
- GO annotation: leukocyte migration involved in inflammatory response (Term: inflammatory response): 0
- GO annotation: lymphocyte chemotaxis (Term: chemotaxis): 0
- GO annotation: lymphocyte migration (Term: migration): 0
- GO annotation: myeloid leukocyte migration (Term: migration): 0
- GO annotation: negative regulation of apoptotic process (Term: apoptosis): 0
- GO annotation: negative regulation of cell death (Term: cell death): 0
- GO annotation: negative regulation of cytokine production (Term: cytokine): 6.2
- GO annotation: negative regulation of defense response (Term: defense response): 8.05
- GO annotation: negative regulation of immune response (Term: immune response): 6.54
- GO annotation: negative regulation of innate immune response (Term: innate immune response): 10.4
- GO annotation: negative regulation of programmed cell death (Term: cell death): 0
- GO annotation: neutrophil chemotaxis (Term: chemotaxis): 0
- GO annotation: neutrophil migration (Term: migration): 0
- GO annotation: positive regulation of I-kappaB kinase/NF-kappaB signaling (Term: NF-kappa B signaling pathway): 7.15
- GO annotation: positive regulation of adaptive immune response (Term: adaptive immune response): 0
- GO annotation: positive regulation of apoptotic process (Term: apoptosis): 0
- GO annotation: positive regulation of cell death (Term: cell death): 0
- GO annotation: positive regulation of cell migration (Term: migration): 0
- GO annotation: positive regulation of chemokine production (Term: chemokine): 8.31
- GO annotation: positive regulation of chemotaxis (Term: chemotaxis): 0
- GO annotation: positive regulation of cytokine biosynthetic process (Term: cytokine): 3.62
- GO annotation: positive regulation of cytokine production (Term: cytokine): 23.6
- GO annotation: positive regulation of defense response (Term: defense response): 35.8
- GO annotation: positive regulation of immune response (Term: immune response): 24.4
- GO annotation: positive regulation of inflammatory response (Term: inflammatory response): 0
- GO annotation: positive regulation of innate immune response (Term: innate immune response): 22.3
- GO annotation: positive regulation of interferon-alpha production (Term: IFN alpha): 8.97
- GO annotation: positive regulation of leukocyte chemotaxis (Term: chemotaxis): 0
- GO annotation: positive regulation of leukocyte migration (Term: migration): 3.33
- GO annotation: positive regulation of programmed cell death (Term: cell death): 0
- GO annotation: positive regulation of response to wounding (Term: wounding): 0
- GO annotation: positive regulation of tumor necrosis factor superfamily cytokine (Term: cytokine): 0
- GO annotation: production of molecular mediator of immune response (Term: immune response): 0
- GO annotation: programmed cell death (Term: cell death): 14
- GO annotation: regulation of I-kappaB kinase/NF-kappaB signaling (Term: NF-kappa B signaling pathway): 8.16
- GO annotation: regulation of adaptive immune response (Term: adaptive immune response): 8.01
- GO annotation: regulation of adaptive immune response based on somatic recombination of immune receptors built from immunoglobulin superfamily domains (Term: adaptive immune response): 3.64
- GO annotation: regulation of apoptotic process (Term: apoptosis): 4.93
- GO annotation: regulation of apoptotic signaling pathway (Term: apoptosis): 0
- GO annotation: regulation of cell death (Term: cell death): 4.48
- GO annotation: regulation of cell migration (Term: migration): 0
- GO annotation: regulation of chemokine production (Term: chemokine): 9.64
- GO annotation: regulation of chemotaxis (Term: chemotaxis): 0
- GO annotation: regulation of cytokine biosynthetic process (Term: cytokine): 3.81
- GO annotation: regulation of cytokine production (Term: cytokine): 31.6
- GO annotation: regulation of defense response (Term: defense response): 56.5
- GO annotation: regulation of defense response to virus (Term: defense response): 0
- GO annotation: regulation of defense response to virus by host (Term: defense response): 0
- GO annotation: regulation of immune response (Term: immune response): 29.4
- GO annotation: regulation of inflammatory response (Term: inflammatory response): 12.3
- GO annotation: regulation of innate immune response (Term: innate immune response): 33.4
- GO annotation: regulation of interferon-alpha production (Term: IFN alpha): 8.3
- GO annotation: regulation of intrinsic apoptotic signaling pathway (Term: apoptosis): 0
- GO annotation: regulation of leukocyte chemotaxis (Term: chemotaxis): 0
- GO annotation: regulation of leukocyte migration (Term: migration): 0
- GO annotation: regulation of programmed cell death (Term: cell death): 5.36
- GO annotation: regulation of response to stress (Term: stress): 42.9
- GO annotation: regulation of response to wounding (Term: wounding): 10.7
- GO annotation: regulation of tumor necrosis factor superfamily cytokine production (Term: cytokine): 4.03
- GO annotation: response to cytokine (Term: cytokine): 56.3
- GO annotation: response to interferon-alpha (Term: IFN alpha): 12.6
- GO annotation: response to stress (Term: stress): 56.2
- GO annotation: response to wounding (Term: wounding): 11.4
- GO annotation: taxis (Term: chemotaxis): 0
- GO annotation: tumor necrosis factor superfamily cytokine production (Term: cytokine): 3.79
- IFN beta: cellular response to interferon-beta: 23.1
- IFN beta: interferon-beta production: 8.61
- IFN beta: positive regulation of interferon-beta production: 13.2
- IFN beta: regulation of interferon-beta production: 9.22
- IFN beta: response to interferon-beta: 26.5
- IFN gamma: cellular response to interferon-gamma: 10.1
- IFN gamma: interferon-gamma production: 5.35
- IFN gamma: regulation of interferon-gamma production: 0
- IFN gamma: response to interferon-gamma: 10.8
- interleukin-6: interleukin-6 production: 7.8
- interleukin-6: positive regulation of interleukin-6 production: 0
- interleukin-6: regulation of interleukin-6 production: 8.27
- interleukin-12: interleukin-12 production: 6.51
- interleukin-12: positive regulation of interleukin-12 production: 0
- interleukin-12: regulation of interleukin-12 production: 6.99
